# Source: ChEMBL document CHEMBL1134673, “Modeling of poly(ADP-ribose)polymerase (PARP) inhibitors. Docking of ligands and quantitative structure-activity relationship analysis” (J Med Chem, 2001)
# pIC50: −log10 of the molar value.
# Target: Poly [ADP-ribose] polymerase 1 (Homo sapiens, UniProt P09874)
# Sequence (P09874 whole entry): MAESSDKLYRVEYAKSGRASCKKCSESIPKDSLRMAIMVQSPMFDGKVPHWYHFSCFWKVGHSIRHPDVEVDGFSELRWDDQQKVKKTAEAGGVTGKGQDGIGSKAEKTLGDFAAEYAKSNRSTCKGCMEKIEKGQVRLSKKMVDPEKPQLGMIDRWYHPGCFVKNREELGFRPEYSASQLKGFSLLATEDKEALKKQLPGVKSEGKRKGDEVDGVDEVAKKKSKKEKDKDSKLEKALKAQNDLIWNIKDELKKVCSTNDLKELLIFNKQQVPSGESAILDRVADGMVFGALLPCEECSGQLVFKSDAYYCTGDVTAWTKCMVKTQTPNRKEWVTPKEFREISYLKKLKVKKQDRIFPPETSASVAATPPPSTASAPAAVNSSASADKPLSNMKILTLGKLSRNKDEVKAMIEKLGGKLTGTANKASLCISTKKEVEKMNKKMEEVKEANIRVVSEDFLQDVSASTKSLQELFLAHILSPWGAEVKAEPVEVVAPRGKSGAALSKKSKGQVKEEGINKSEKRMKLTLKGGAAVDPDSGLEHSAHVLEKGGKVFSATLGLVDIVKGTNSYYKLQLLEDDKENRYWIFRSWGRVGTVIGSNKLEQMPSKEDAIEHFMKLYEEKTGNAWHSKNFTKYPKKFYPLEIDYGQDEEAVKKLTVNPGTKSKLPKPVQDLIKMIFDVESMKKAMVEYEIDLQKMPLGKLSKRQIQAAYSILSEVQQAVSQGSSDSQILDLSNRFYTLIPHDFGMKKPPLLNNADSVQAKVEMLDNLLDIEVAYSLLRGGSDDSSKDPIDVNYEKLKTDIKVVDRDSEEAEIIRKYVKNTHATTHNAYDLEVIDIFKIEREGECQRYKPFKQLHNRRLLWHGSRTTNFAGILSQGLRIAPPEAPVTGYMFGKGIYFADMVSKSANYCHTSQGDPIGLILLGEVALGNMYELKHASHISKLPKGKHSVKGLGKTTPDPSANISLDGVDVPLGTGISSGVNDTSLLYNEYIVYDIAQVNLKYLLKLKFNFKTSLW
# Description: The compound was tested for poly(ADP-ribose)-polymerase (PARP) inhibition
row,pIC50,Structure (SMILES)
1,3.52,NC(=O)c1ccc(Cl)cc1
2,3.92,CN(C)c1cccc(C(N)=O)c1
3,4.72,Cc1cccc(C(N)=O)c1
4,3.55,NC(=O)c1ccc(O)cc1
5,3.70,NC(=O)c1ccc(F)cc1
6,4.70,NC(=O)c1cccc(F)c1
7,2.74,NC(=O)c1ccc(N)cc1
8,3.80,NC(=O)c1cccc([N+](=O)[O-])c1
9,2.66,NC(=O)c1ccc(Br)cc1
10,5.04,NC(=O)c1cccc(O)c1
11,6.52,O=c1[nH]c2ccccc2c2ccccc12
12,6.46,O=c1[nH]c2ccc([N+](=O)[O-])cc2c2ccccc12
13,4.66,NC(=O)c1ccccc1 [BENZAMIDE]
14,4.92,O=c1[nH]ncc2ccccc12 [PHTHALAZINONE]

row,Structure (SMILES),pIC50
1,O=c1[nH]cnc2ccccc12 [QUINAZOLINONE],5.02

# Target: not listed separately
# Assay: poly(ADP-ribose)-polymerase (PARP) inhibition
row,pIC50,Structure (SMILES)
1,6.57,Cc1cccc2c(O)nc(-c3ccc(C#N)cc3)nc12
2,4.41,COc1cccc2c(O)nc(-c3ccc(C(F)(F)F)cc3)nc12
3,6.06,Cc1cccc2c(O)nc(-c3ccccc3)nc12
4,6.07,COc1cccc2c(O)nc(-c3ccc([N+](=O)[O-])cc3)nc12
5,6.66,Cc1cccc2c(O)nc(-c3ccc(O)cc3)nc12
6,6.28,Nc1ccc(-c2nc(O)c3cccc(O)c3n2)cc1
7,5.38,COc1cccc2c(O)nc(-c3ccccc3)nc12
8,6.72,COc1ccc(-c2nc(O)c3cccc(C)c3n2)cc1
9,6.64,O=[N+]([O-])c1ccc(-c2nc(O)c3cccc(O)c3n2)cc1
10,5.87,COc1cccc2c(O)nc(-c3ccc(C#N)cc3)nc12
11,6.36,Cc1cccc2c(O)nc(-c3ccc(N)cc3)nc12
